Test results published in patent US6908899B2, “Pro-inflammatory fibrinopeptide” (U.S. Dept. of Veterans Affairs, priority 2001, dated 2005).
Where no end group is shown, it is not given here. [ ]: non-standard residue; d: D form. Pen = CC(C)(S)[C@H](N)C(=O)O

What was measured:
[1] = test system: RA derived synovial cells; assay: In vitro T cell adhesion assay; assay type: cell-based, human; conditions: IL-1 beta 1 ng/ml overnight, ± SD, triplicate wells
[2] = test system: foreskin fibroblast cells; assay: In vitro T cell adhesion assay; assay type: cell-based, human; conditions: Foreskin line; IL-1 beta 1 ng/ml overnight; ± SD, triplicate wells
[3] = test system: synovial cells from patients with osteoarthritis (OA); assay: ICAM-1 ELISA (O.D. 492); assay type: cell-based, human; conditions: OA line; overnight; IL-1 0.5 ng/ml, GPRP or GPRP-amide 1 mg/ml, fibrinogen receptor peptide 0.1 mg/ml, FPA, FPB 10^−4 M
[4] = test system: OA derived synovial cells; assay: In vitro T cell adhesion assay; assay type: cell-based, human; conditions: OA line 15; IL-1 beta 1 ng/ml overnight; ± SD, triplicate wells
OA synovial cells = assay: PDTC inhibition of IL-1 and GPRP induction of ICAM-1 (ELISA); assay type: cell-based, human; conditions: PDTC pre-incubation 1.5 hours, IL-1 or GPRP overnight, ± SD, triplicate
Text: (§1) NF-kappaB activation is already well known to affect a broad array of immediate-early gene products, such as TNF, interleukins, chemokines and colony stimulating factors; genes that are tightly regulated during inflammation and wound healing. […] PDTC is an anti-oxidant that prevents NF-kappaB activation and its translocation to the nucleus (Reference 26). […] [table]

RA synovial cells = assay: as above; assay type: cell-based, human; conditions: for ICAM-1 O.D. 492: PDTC pre-incubation 1.5 hours, IL-1 or GPRP overnight, ± SD, triplicate
Text: as §1

foreskin fibroblasts = assay: ICAM-1 cell-ELISA (O.D. 492); assay type: cell-based, human; conditions: overnight; for ICAM-1 O.D. 492: Foreskin line, IL-1 0.5 ng/ml, GPRP or GPRP-amide 1 mg/ml, fibrinogen receptor peptide 0.1 mg/ml, FPA, FPB 10^−4 M
RA synovial fibroblasts [5] = assay: ICAM-1 cell-ELISA (O.D. 492); assay type: cell-based, human; conditions: for ICAM-1 O.D. 492: overnight, IL-1 0.5 ng/ml, GPRP or GPRP-amide 1 mg/ml, fibrinogen receptor peptide 0.1 mg/ml, FPA, FPB 10^−4 M; for Effect on ICAM-1 induction: synovial cell incubation with coagulation-related peptides
fibrin polymerization = conditions: cited from earlier work
RA synovial fibroblasts [6] = assay: Binding of biotinylated peptide by flow cytometry; set-up: species or system human; conditions: RA #16, Avidin-FITC
Text: Table 9 illustrates an analysis of the binding of biotinylated amino acid sequence 17-28 of human fibrinogen Aα Chain (SAC[KBtn]) to RA synovial fibroblasts by Flow Cytometry. The biotinylated control peptide (KREE-SEQ ID NO:3) represents corresponding sequences derived from the B/beta chain of fibrinogen following removal of Fibrinopeptide B.

Synovial cells = assay: SAC competition assay by flow cytometry; assay type: binding, human; conditions: for Mean (fluorescence of bound SAC[KBtn]): Avidin-FITC
Text: Thus, labeled peptide could facilitate the isolation, identification and characterization of its receptor, through standard immunological techniques such as immunohistochemistry, flow cytometry and immunoprecipitation.

RA patients = conditions: double blind clinical trial (Reference 29); cited from earlier work
monocytes = monocytes stimulated with PHA; for comparison; cited from earlier work
RA synovial fibroblasts [7] = assay: GRO-alpha ELISA on cell culture supernatants; assay type: cell-based, human; conditions: RA line 7
Description: I used commercial ELISA kits to assay cell culture supernatants of RA fibroblasts that were cultured for both 24 and 48 hours with or without peptide.

[8] = unlabeled competitor 2.5 mg for 3 hours, then labeled SAC[KBtn] for 1 hour

Chain of fibrin polymerization (P02679 27-453, one chain of several): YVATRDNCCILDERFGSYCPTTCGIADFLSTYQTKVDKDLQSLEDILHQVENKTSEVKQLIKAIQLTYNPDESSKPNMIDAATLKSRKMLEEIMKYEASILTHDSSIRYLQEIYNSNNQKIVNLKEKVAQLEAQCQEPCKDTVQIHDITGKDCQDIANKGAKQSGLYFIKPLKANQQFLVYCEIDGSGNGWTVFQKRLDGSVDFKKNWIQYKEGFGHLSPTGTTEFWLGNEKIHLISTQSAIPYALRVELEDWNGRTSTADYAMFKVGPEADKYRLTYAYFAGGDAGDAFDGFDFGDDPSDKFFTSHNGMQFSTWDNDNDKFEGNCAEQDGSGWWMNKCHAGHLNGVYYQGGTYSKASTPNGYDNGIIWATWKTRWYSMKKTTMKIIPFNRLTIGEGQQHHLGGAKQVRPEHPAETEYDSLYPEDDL
Chain of fibrin polymerization (P02671 20-639 isoform P02671-2 partner limits assumed, one chain of several): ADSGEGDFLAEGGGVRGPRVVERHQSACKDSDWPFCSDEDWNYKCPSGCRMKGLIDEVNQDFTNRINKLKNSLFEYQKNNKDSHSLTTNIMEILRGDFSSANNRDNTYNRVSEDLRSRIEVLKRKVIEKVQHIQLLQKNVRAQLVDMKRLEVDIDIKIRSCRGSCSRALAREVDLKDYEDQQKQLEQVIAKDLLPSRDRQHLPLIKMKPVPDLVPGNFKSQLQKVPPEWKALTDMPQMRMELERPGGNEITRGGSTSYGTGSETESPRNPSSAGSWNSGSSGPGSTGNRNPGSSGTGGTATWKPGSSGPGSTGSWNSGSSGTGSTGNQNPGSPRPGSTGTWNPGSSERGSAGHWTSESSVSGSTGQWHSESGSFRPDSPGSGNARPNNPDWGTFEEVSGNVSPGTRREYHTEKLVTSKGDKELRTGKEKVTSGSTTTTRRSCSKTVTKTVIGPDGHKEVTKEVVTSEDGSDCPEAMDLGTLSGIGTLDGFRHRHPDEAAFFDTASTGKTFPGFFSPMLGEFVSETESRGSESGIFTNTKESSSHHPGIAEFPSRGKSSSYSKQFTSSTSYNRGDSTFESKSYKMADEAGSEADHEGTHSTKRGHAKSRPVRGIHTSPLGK

With “IL-1: cytokine, an inducer of ICAM-1, positive control [reference compound]” the “Adherent T cell numbers” value ([1]; RA line 7) was 116 ± 14, the “Adherent T cell numbers” value ([1]; RA line 8) was 58 ± 21 and the “Adherent T cell numbers” value [2] was 94 ± 16. For the same molecule, the “ICAM-1 O.D. 492” value [3] was 1.36 ± .03, the “Adherent T cell numbers” value [4] was 66 ± 19 and the “ICAM-1 O.D. 492” value (OA synovial cells; OA line 2) was 1.60 ± .03. For the same molecule, the “ICAM-1 O.D. 492” value (OA synovial cells; OA line 8) was 1.51 ± .05, the “ICAM-1 O.D. 492” value (RA synovial cells; RA line 5) was 1.88 ± .05 and the “ICAM-1 O.D. 492” value (RA synovial cells; RA line 6) was 1.80 ± .04. The “ICAM-1 O.D. 492” value (foreskin fibroblasts) was 1.77 ± .13, the “ICAM-1 O.D. 492” value (RA synovial fibroblasts [5]; RA line 1) was 1.74 ± .08 and the “ICAM-1 O.D. 492” value (RA synovial fibroblasts [5]; RA line 2) was 1.18 ± .03.

For “GPRP-amide: GPRP with the carboxyl group at the end of Pro4 changed to an amide group (OH to NH2) (GPRP-NH2)”, the “ICAM-1 O.D. 492” value [3] was 0.44 ± .01, the “ICAM-1 O.D. 492” value (foreskin fibroblasts) was 0.80 ± .01 and the “ICAM-1 O.D. 492” value (RA synovial fibroblasts [5]; RA line 1) was 0.65 ± .02. For the same molecule, the “ICAM-1 O.D. 492” value (RA synovial fibroblasts [5]; RA line 2) was 0.49 ± .02, the “Induction of ICAM-1 in synovial fibroblasts” value (RA synovial fibroblasts [5]; amide analog substituted for GPRP) was “totally ineffective” and the “Effectiveness at inhibiting polymerization relative to H-Gly-Pro-Arg-Pro-OH” value (fibrin polymerization; Reference 20) was “approximately three and one-half”.

For “GPRVVERHQSAC[KBtn] (GPRVVERHQSACK) [SAC [KBtn]]”, the “% Cells Positive” value (RA synovial fibroblasts [6]; 100 ug biotinylated peptide) was 86.3%, the “Mean Fluorescent Channel” value (RA synovial fibroblasts [6]; 100 ug biotinylated peptide) was 257.9 and the “% Cells Positive” value (RA synovial fibroblasts [6]; 200 ug biotinylated peptide) was 80.0%. The “Mean Fluorescent Channel” value (RA synovial fibroblasts [6]; 200 ug biotinylated peptide) was 125.1 and the “Mean (fluorescence of bound SAC[KBtn])” value (Synovial cells; labeled SAC[KBtn] without competitor) was 51.20.

In the case of “Ac-[Pen]RGDC (cysteine pairing not given here) [Fib. Recept. Pept., reference compound]”, the “ICAM-1 O.D. 492” value [3] is reported as 0.38 ± .02, the “ICAM-1 O.D. 492” value (foreskin fibroblasts) is reported as 0.73 ± .08 and the “ICAM-1 O.D. 492” value (RA synovial fibroblasts [5]; RA line 1) is reported as 0.56 ± .02. The “ICAM-1 O.D. 492” value (RA synovial fibroblasts [5]; RA line 2) was 0.42 ± .01.

In the case of “FPB: Fibrinopeptide B, coagulation-related peptide (QGVNDNEEGFFSAR; ends and bridges not checked; UniProt P02675 31-44, looked up) [reference compound]”, the “ICAM-1 O.D. 492” value [3] is reported as 0.41 ± .04, the “ICAM-1 O.D. 492” value (foreskin fibroblasts) is reported as 0.80 ± .02 and the “ICAM-1 O.D. 492” value (RA synovial fibroblasts [5]; RA line 1) is reported as 0.67 ± .04. For the same molecule, the “ICAM-1 O.D. 492” value (RA synovial fibroblasts [5]; RA line 2) was 0.47 ± .02 and the “Effect on ICAM-1 induction” value (RA synovial fibroblasts [5]) was “no effect”.

In the case of `C[C@]12Cc3c[nH]nc3C[C@@H]1CC[C@@H]1[C@@H]2CC[C@@]2(C)[C@H]1CC[C@]2(C)O` [stanozolol], the “Clinical outcome in RA patients” value (RA patients) is given as “clinical benefit”.

With `S=C(S)N1CCCC1` [PDTC, pyrrolidinedithio-carbamate] the “ICAM-1 O.D. 492” value (OA synovial cells; OA line 2) was 0.65 ± .03, the “ICAM-1 O.D. 492” value (OA synovial cells; OA line 8) was 0.55 ± .04 and the “ICAM-1 O.D. 492” value (RA synovial cells; RA line 5) was 0.75 ± .06. The “ICAM-1 O.D. 492” value (RA synovial cells; RA line 6) was 0.61 ± .02 and the “Effect on increase in ICAM-1 expression induced by Interleukin-1 and by GPRP” value (RA synovial cells; inclusion of PDTC) was “stopped the entire increase in ICAM-1 expression”.

In the case of “FPA: amino acids 1 through 16 of the fibrinogen A/alpha chains cleaved off by thrombin (ADSGEGDFLAEGGGVR; Fibrinopeptide A; UniProt P02671 20-35, looked up) [reference compound]”, the “ICAM-1 O.D. 492” value [3] is reported as 0.31 ± .005, the “ICAM-1 O.D. 492” value (foreskin fibroblasts) is reported as 0.69 ± .02 and the “ICAM-1 O.D. 492” value (RA synovial fibroblasts [5]; RA line 1) is reported as 0.61 ± .05. For the same molecule, the “ICAM-1 O.D. 492” value (RA synovial fibroblasts [5]; RA line 2) was 0.43 ± .03 and the “Effect on ICAM-1 induction” value (RA synovial fibroblasts [5]) was “no effect”.

For “GHRPLDKKREE[KBtn] (GHRPLDKKREEK) [KREE [KBtn], biotinylated control peptide derived from the B/beta chain of fibrinogen, reference compound]”, the “% Cells Positive” value (RA synovial fibroblasts [6]; 100 ug biotinylated peptide) was 10.6% and the “Mean Fluorescent Channel” value (RA synovial fibroblasts [6]; 100 ug biotinylated peptide) was 20.37.

In the case of phytohemagglutinin, the “Increase of IL-8 production” value (monocytes) is listed as “approximately three”.

With “GPRVVERHQSAC (Unknown. Obtained from a commercial source.)” the “Competition with biotin-labeled SAC for binding to human synovial fibroblasts” value (Synovial cells; unlabeled competitor) was “can compete” and the “Mean (fluorescence of bound SAC[KBtn])” value (Synovial cells; [8]) was 36.30.

For Gly-Pro-Arg [reference compound], the “Inhibition of fibrin polymerization” value (fibrin polymerization; literature (Reference 25)) is given as “functions well as a polymerization inhibitor”.

B1: interferon γ: positive control for foreskin fibroblasts (protein, UniProt P01579 24-161, looked up)
Interferon gamma: QDPYVKEAENLKKYFNAGHSDVADNGTLFLGILKNWKEESDRKIMQSQIVSFYFKLFKNFKDDQSIQKSVETIKEDMNVKFFNSNKKKRDDFEKLTNYSVTDLNVQRKAIHELIQVMAELSPAAKTGKRKRSQMLFRG
With B1 the “ICAM-1 expression O.D. 492” value (foreskin fibroblasts; Foreskin fibroblasts, fibrin clots 0.6 mg/ml, GPRP 1 mg/ml or interferon γ 200 U/ml, mean ± SD) was 1.57 ± .13.

B2: Fibrinogen: plasma protein precursor of fibrin; unlabeled competitor in Table 10 (protein)
chain 1: ADSGEGDFLAEGGGVRGPRVVERHQSACKDSDWPFCSDEDWNYKCPSGCRMKGLIDEVNQDFTNRINKLKNSLFEYQKNNKDSHSLTTNIMEILRGDFSSANNRDNTYNRVSEDLRSRIEVLKRKVIEKVQHIQLLQKNVRAQLVDMKRLEVDIDIKIRSCRGSCSRALAREVDLKDYEDQQKQLEQVIAKDLLPSRDRQHLPLIKMKPVPDLVPGNFKSQLQKVPPEWKALTDMPQMRMELERPGGNEITRGGSTSYGTGSETESPRNPSSAGSWNSGSSGPGSTGNRNPGSSGTGGTATWKPGSSGPGSTGSWNSGSSGTGSTGNQNPGSPRPGSTGTWNPGSSERGSAGHWTSESSVSGSTGQWHSESGSFRPDSPGSGNARPNNPDWGTFEEVSGNVSPGTRREYHTEKLVTSKGDKELRTGKEKVTSGSTTTTRRSCSKTVTKTVIGPDGHKEVTKEVVTSEDGSDCPEAMDLGTLSGIGTLDGFRHRHPDEAAFFDTASTGKTFPGFFSPMLGEFVSETESRGSESGIFTNTKESSSHHPGIAEFPSRGKSSSYSKQFTSSTSYNRGDSTFESKSYKMADEAGSEADHEGTHSTKRGHAKSRPV
chain 2: QGVNDNEEGFFSARGHRPLDKKREEAPSLRPAPPPISGGGYRARPAKAAATQKKVERKAPDAGGCLHADPDLGVLCPTGCQLQEALLQQERPIRNSVDELNNNVEAVSQTSSSSFQYMYLLKDLWQKRQKQVKDNENVVNEYSSELEKHQLYIDETVNSNIPTNLRVLRSILENLRSKIQKLESDVSAQMEYCRTPCTVSCNIPVVSGKECEEIIRKGGETSEMYLIQPDSSVKPYRVYCDMNTENGGWTVIQNRQDGSVDFGRKWDPYKQGFGNVATNTDGKNYCGLPGEYWLGNDKISQLTRMGPTELLIEMEDWKGDKVKAHYGGFTVQNEANKYQISVNKYRGTAGNALMDGASQLMGENRTMTIHNGMFFSTYDRDNDGWLTSDPRKQCSKEDGGGWWYNRCHAANPNGRYYWGGQYTWDMAKHGTDDGVVWMNWKGSWYSMRKMSMKIRPFFPQQ
chain 3: YVATRDNCCILDERFGSYCPTTCGIADFLSTYQTKVDKDLQSLEDILHQVENKTSEVKQLIKAIQLTYNPDESSKPNMIDAATLKSRKMLEEIMKYEASILTHDSSIRYLQEIYNSNNQKIVNLKEKVAQLEAQCQEPCKDTVQIHDITGKDCQDIANKGAKQSGLYFIKPLKANQQFLVYCEIDGSGNGWTVFQKRLDGSVDFKKNWIQYKEGFGHLSPTGTTEFWLGNEKIHLISTQSAIPYALRVELEDWNGRTSTADYAMFKVGPEADKYRLTYAYFAGGDAGDAFDGFDFGDDPSDKFFTSHNGMQFSTWDNDNDKFEGNCAEQDGSGWWMNKCHAGHLNGVYYQGGTYSKASTPNGYDNGIIWATWKTRWYSMKKTTMKIIPFNRLTIGEGQQHHLGGAKQAGDV
In the case of B2, the GRO-alpha (RA synovial fibroblasts [7]) is reported as 8000 pg/mL, the “GRO-alpha Fold Increase” value (RA synovial fibroblasts [7]; versus control) is reported as 145X and the “Mean (fluorescence of bound SAC[KBtn])” value (Synovial cells; [8]) is reported as 21.63.
